Assay results reported in US7700584B2 (Hangzhou Minsheng Pharmaceuticals Co., Ltd., priority 2004, dated 2010).

Assays:
Format in all cases: cell-based
Settings in all cases: 50 μg/ml
[1] = test system: U-937 human histocytic lymphoma; experiment: In vitro inhibition rate to tumor cells (MTT), U-937
Method: (§1) (1) Single cell suspension was seeded into 96-well plates (×3) (the cells was diluted in the PRMI-1640 minimum medium to 3×10^4 cells/ml, […] diluted cells/well). […] The experiments were performed in quadruplicate.
(§2) (2) The medium was removed. Solutions of the anti-tumor agents (15 compounds) were prepared in a freshly prepared medium at the concentrations indicated in the following Table. […] of the solution was added into each well. Incubation was continued for 48 hours.
(§3) (3) […] of 2 mg/ml MTT was added into each well, and incubated for 4 hours.
(§4) (4) The medium was removed from the well. The microplates were swiftly turned down to throw-off the medium. […] DMSO was added into each well, and vortexed at room temperature for 10 minutes.
(§5) (5) OD value (λ=570 nm) was measured with an Enzyme-Linked Detector.
(§6) (6) The inhibition rates (IR) of cell growth were respectively calculated based on the following equation: IR(%)=[1−(average OD of the experimental group/average OD of the control group)]×100%

[2] = test system: Bel-7402 human hepatic carcinoma; experiment: In vitro inhibition rate to tumor cells (MTT), Bel-7402
Method: as §1, §2, §3, §4, §5, §6

[3] = test system: MCF-7 human mammary adenocarcinoma; experiment: In vitro inhibition rate to tumor cells (MTT), MCF-7
Method: as §1, §2, §3, §4, §5, §6

[4] = test system: SMMC-7721 human hepatic carcinoma; experiment: In vitro inhibition rate to tumor cells (MTT), SMMC-7721
Method: as §1, §2, §3, §4, §5, §6

[5] = test system: HL-60 human promyelocytic leukemia; experiment: In vitro inhibition rate to tumor cells (MTT), HL-60
Method: as §1, §2, §3, §4, §5, §6

[6] = test system: Hela human cervical carcinoma; experiment: In vitro inhibition rate to tumor cells (MTT), Hela
Method: as §1, §2, §3, §4, §5, §6

[7] = test system: A-549 human lung adenocarcinoma; experiment: In vitro inhibition rate to tumor cells (MTT), A-549
Method: as §1, §2, §3, §4, §5, §6

[8] = test system: LLC mouse Lewis lung carcinoma; experiment: In vitro inhibition rate to tumor cells (MTT), LLC
Method: as §1, §2, §3, §4, §5, §6

SMILES | inhibition rate, Results (%) U-937 ([1]; Table 1) [%] | inhibition rate, Results (%) U-937 ([1]; Table 2 (repeated screening)) [%] | inhibition rate, Results (%) Bel-7402 ([2]; Table 1) [%] | inhibition rate, Results (%) Bel-7402 ([2]; Table 2 (repeated screening)) [%] | inhibition rate, Results (%) MCF-7 ([3]; Table 1) [%] | inhibition rate, Results (%) MCF-7 ([3]; Table 2 (repeated screening)) [%] | inhibition rate, Results (%) SMMC-7721 ([4]; Table 1) [%] | inhibition rate, Results (%) SMMC-7721 ([4]; Table 2 (repeated screening)) [%] | inhibition rate, Results (%) HL-60 ([5]; Table 1) [%] | inhibition rate, Results (%) HL-60 ([5]; Table 2 (repeated screening)) [%] | inhibition rate, Results (%) Hela ([6]; Table 1) [%] | inhibition rate, Results (%) Hela ([6]; Table 2 (repeated screening)) [%] | inhibition rate, Results (%) A-549 ([7]; Table 1) [%] | inhibition rate, Results (%) A-549 ([7]; Table 2 (repeated screening)) [%] | inhibition rate, Results (%) LLC ([8]; Table 1) [%] | inhibition rate, Results (%) LLC ([8]; Table 2 (repeated screening)) [%]
CCCCNC=C1CC2(OC)OC3(CC2C(C)C)C(C)CCC13.Cl (stereo not drawn) [Compound 28, Curcumol methyl ether n-butyl amine hydrochloride] | 59.32 | 51.23 | −2.24 | −0.45 | 32.15 | 19.98 | −3.78 | −1.02 | 2.98 | 4.32 | 58.75 | 60.45 | 1.23 | 2.31 | 0.24 | 1.23
C=CC(=O)OC12CC(=C)C3CCC(C)C3(CC1C(C)C)O2 (stereo not drawn) [Compound 22, Curcumol acrylate] | 60.32 | 50.23 | 12.80 | 0.23 | 88.32 | 85.02 | 44.39 | 40.32 | 21.01 | 21.03 | 63.20 | 61.88 | 19.23 | 12.36 | −6.01 | −6.41
CC(C)C1CC23OC1(O)CC(CN1CCNCC1)(N1CCNCC1)C2CCC3C.Cl (stereo not drawn) [Compound 42, Curcumol bispiperazine hydrochloride] | −12.5 | −1.03 | 2.15 | 14.36 | 34.21 | 30.12 | 6.86 | 0.79 | 2.73 | 3.14 | 55.64 | 54.03 | 10.16 | 3.12 | 9.99 | 1.79
CCCCNC=C1CC2(OC)OC3(CC2C(C)C)C(C)CCC13 (stereo not drawn) [Compound 27, Curcumol methyl ether n-butyl amine] | 52.98 | 50.98 | 4.65 | 2.31 | 23.78 | 14.36 | 25.94 | 20.36 | 3.19 | 5.969 | 62.31 | 60.21 | 15.01 | 5.23 | −10.89 | −10.00
C=C1CC2(OC(C)=O)OC3(CC2C(C)C)C(C)CCC13 (stereo not drawn) [Compound 1, Curcumol acetate] | 45.45 | 34.26 | 32.12 | 25.32 | 45.6 | 41.02 | 23.10 | 28.23 | 23.12 | 12.03 | 51.23 | 55.98 | −9.16 | −6.32 | 1.30 | 1.30
CCOC12CC(=CO[N+](=O)[O-])C3CCC(C)C3(CC1C(C)C)O2 (stereo not drawn) [Compound 29, Curcumol ethyl ether nitrate] | 25.32 | 12.32 | 2.51 | 3.21 | 37.85 | 30.12 | 4.26 | 5.68 | 42.12 | 42.79 | 56.98 | 50.17 | 3.89 | 1.23 | −10.12 | −1.95
COC12CC(=CBr)C3CCC(C)C3(CC1C(C)C)O2 (stereo not drawn) [Compound 26, Curcumol methyl ether bromide] | 55.32 | 54.23 | 3.45 | −3.45 | 43.21 | 41.21 | 0.97 | −0.97 | −0.23 | −0.23 | 51.00 | 56.55 | −3.24 | −3.12 | 11.77 | −11.77
CC(C)C1CC23OC1(O)CC(Br)(CBr)C2CCC3C (stereo not drawn) [Compound 30, Curcumol dibromide] | 13.25 | 13.10 | 12.40 | 9.84 | 36.15 | 30.56 | 1.03 | 4.56 | 13.20 | 4.12 | 53.87 | 56.89 | 4.36 | 4.01 | −1.83 | −4.65
CC(C)C1CC23OC1(O)CC(C)(O[N+](=O)[O-])C2CCC3C (stereo not drawn) [Compound 36, Curcumol mononitrate without double bond] | 6.98 | 5.32 | 0.22 | 0.02 | −1.23 | −2.31 | 15.39 | 14.08 | 1.03 | 2.01 | 62.13 | 65.23 | 9.21 | 1.20 | 11.56 | 11.56
